Source: patent US6153415A, “Method for producing amide compounds using a nitrile hydratase from a thermophilic bacillus” (priority 1999, dated 2000)

T1: BR449 nitrile hydratase (Bacillus sp. BR449, UniProt Q9L541+Q9L542)
T1 construct: alpha 214 aa, beta 229 aa
T1 sequence (Q9L541 1-214): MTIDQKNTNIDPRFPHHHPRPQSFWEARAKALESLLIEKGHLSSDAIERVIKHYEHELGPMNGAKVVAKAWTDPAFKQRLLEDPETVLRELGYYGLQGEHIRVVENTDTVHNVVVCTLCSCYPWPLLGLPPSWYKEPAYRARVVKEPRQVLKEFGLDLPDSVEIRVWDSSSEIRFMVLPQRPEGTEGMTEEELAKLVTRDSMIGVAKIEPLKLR
T1 sequence (Q9L542 1-229): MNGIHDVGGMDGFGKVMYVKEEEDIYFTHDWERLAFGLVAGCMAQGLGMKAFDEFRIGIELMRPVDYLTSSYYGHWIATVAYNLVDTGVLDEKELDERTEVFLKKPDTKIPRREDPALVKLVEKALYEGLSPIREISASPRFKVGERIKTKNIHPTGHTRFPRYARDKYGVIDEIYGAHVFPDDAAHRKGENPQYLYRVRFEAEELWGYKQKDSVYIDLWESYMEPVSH

T2: hydratase of BR449 (Bacillus sp. BR449, UniProt Q9L541+Q9L542)
T2 construct: alpha 214 aa, beta 229 aa
T2 sequence (Q9L541 1-214): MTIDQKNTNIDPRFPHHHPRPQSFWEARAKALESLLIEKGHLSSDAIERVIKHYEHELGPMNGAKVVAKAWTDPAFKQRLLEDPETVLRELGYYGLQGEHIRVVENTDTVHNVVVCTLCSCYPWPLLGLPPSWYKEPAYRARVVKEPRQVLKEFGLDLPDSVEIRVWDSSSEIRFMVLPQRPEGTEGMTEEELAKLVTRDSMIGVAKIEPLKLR
T2 sequence (Q9L542 1-229): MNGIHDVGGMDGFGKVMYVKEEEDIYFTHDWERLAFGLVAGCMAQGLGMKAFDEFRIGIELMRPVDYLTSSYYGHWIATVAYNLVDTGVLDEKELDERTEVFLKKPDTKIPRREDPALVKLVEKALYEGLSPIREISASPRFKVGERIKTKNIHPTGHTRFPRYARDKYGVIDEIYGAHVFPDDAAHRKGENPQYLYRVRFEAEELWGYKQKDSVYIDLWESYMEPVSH


Key:
[1] = tested on: Bacillus sp. BR449; experiment: Effect of metal ions on growth (total cells) of BR449; format: cell-based; details: divalent metal salt 20 mg/l in growth medium
Experimental: (§1) Bacillus sp. BR449 (ATCC 202119) was grown in OP medium at pH 7.2 which contained per liter: KH2 PO4, 1 g; K2 HPO4, 0.5 g; yeast extract, 1 g; malt extract, 1 g; peptone 2 g; glycerol, 3 g; casamino acids, 0.1 g. The isolate was grown at 60° C. using turbidity to monitor culture density. Divalent metal salts were added to the growth medium where indicated in concentrations of 20 mg/l.

[2] = target: T1, BR449 nitrile hydratase; experiment: Effect of additions during growth on nitrile hydratase activity of BR449; format: cell-based; details: for Nitrile hydratase Specific Activity: BR449 grown with divalent metal salt 20 mg/l
Experimental: as §1
(§2) Nitrile hydratase activity was measured using whole cells in assays containing 20 mg (dry wt) cells, in 1 ml 0.5 M acrylonitrile and potassium phosphate buffer, containing 0.5 M acrylonitrile, pH 7.5. The reaction mixture was incubated in a water bath at 50° C. with shaking for 10 minutes, and the reaction stopped by addition of 0.2 ml 2 N HCl. Acrylamide formation was measured using HPLC by injection into a Novapak C-18 reverse phase column and eluted with 1:12 acetonitrile:5mM potassium phosphate buffer, pH 2.5. Peaks were identified at 200 nm with a Waters (Newton, Mass.) variable wavelength detector and analyzed with reference to chemical standards. One unit of nitrile hydratase activity is defined as the formation of one μmole acrylamide per minute. Amidase activity was measured in the same manner using 0.5 M acrylamide as substrate by measurement of acrylic acid formation.
(§3) Divalent metal ions were added during growth of isolate BR449 to provide indications of metals stimulatory to nitrile hydratase production.

[3] = tested on: amidase; experiment: Effect of metal ions during growth on amidase activity of BR449; format: cell-based, Bacillus sp. BR449; details: BR449 grown with divalent metal salt 20 mg/l
Experimental: as §1, §2, §3

[4] = target: T2, hydratase of BR449; experiment: Nitrile hydratase activity with varied acrylonitrile concentration (substrate inhibition); format: biochemical; details: 10% acrylonitrile, assay at 50° C.
Experimental: as §2, with “Nitrile hydratase activity was measured using whole cells in assays containing 20 mg (dry wt) cells, in 1 ml 0.5 M acrylonitrile and potassium phosphate buffer, containing 0.5 M acrylonitrile, pH 7.5.” left out

[5] = Enzyme stability study, whole cells incubated in buffer at varied temperatures; format: physicochemical, Bacillus sp. BR449; details: two hour incubations in buffer, assay at 50° C.
Experimental: For studies of nitrile hydratase stability, whole cells of BR449 were incubated at varied temperatures in 50 mM potassium phosphate buffer, pH 7.5, following which the nitrile hydratase assay was carried out at 50° C.

Row | Molecule | Total Cells [1] | Nitrile hydratase Specific Activity [2] [U/mg] | Amidase Specific Activity [3] [U/mg] | Induction of hydratase activity ([2]; addition during BR449 growth) | inhibition of BR449 hydratase (substrate inhibition) [4] [%] | temperature to which the enzyme is stable [5] [°C]
1 | [Ni+2] [Ni^2+] | 80 mt/1, dry weight | 6.8 | 3.4 |  |  | 
2 | [Co+2] [Co^2+] | 225 mt/1, dry weight | 71.5 | 9.7 |  |  | 
3 | [Fe+2] [Fe^2+] | 490 mt/1, dry weight | 4.3 | 2.3 |  |  | 
4 | [Cu+2] [Cu^2+] | 90 mt/1, dry weight | 1.9 | 1.5 |  |  | 
5 | C=CC#N [acrylonitrile] |  |  |  | without effect | 47 | 
6 | [Mn+2] [Mn^2+] | 65 mt/1, dry weight | 2.2 | 2.1 |  |  | 
7 | BR449 nitrile hydratase: cobalt-containing nitrile hydratase of Bacillus sp. BR449, alpha subunit SEQ ID NO:9, beta subunit SEQ ID NO:11 (protein) alpha: MTIDQKNTNIDPRFPHHHPRPQSFWEARAKALESLLIEKGHLSSDAIERVIKHYEHELGPMNGAKVVAKAWTDPAFKQRLLEDPETVLRELGYYGLQGEHIRVVENTDTVHNVVVCTLCSCYPWPLLGLPPSWYKEPAYRARVVKEPRQVLKEFGLDLPDSVEIRVWDSSSEIRFMVLPQRPEGTEGMTEEELAKLVTRDSMIGVAKIEPLKLR beta: MNGIHDVGGMDGFGKVMYVKEEEDIYFTHDWERLAFGLVAGCMAQGLGMKAFDEFRIGIELMRPVDYLTSSYYGHWIATVAYNLVDTGVLDEKELDERTEVFLKKPDTKIPRREDPALVKLVEKALYEGLSPIREISASPRFKVGERIKTKNIHPTGHTRFPRYARDKYGVIDEIYGAHVFPDDAAHRKGENPQYLYRVRFEAEELWGYKQKDSVYIDLWESYMEPVSH |  |  |  |  |  | ≤ 60
